Consider eleven compounds from publication PMC8220083 (Frontiers in Pharmacology, 2021).

Where “and” joins values, the source holds several entries; their conditions need not be identical. Identical values can stand only once. Like-named read-outs stand apart in the source and are kept apart here.

The test system of one test is U937 Clone 10 cells. Kind of test: Receptor polarization and endocytosis of SHIV. The class given is cell-based, human. Particulars: for SHIV localization: cells preconditioned 15 min 37°C. As for the experimental part: Receptor Polarization and Endocytosis. To Eppendorf tubes that been precoated with RPMI-1640 containing 10% fetal bovine serum to prevent attachment, were added 250 μl containing 5 × 10^5 U937 Clone 10 cells.
U937 Clone 10 cells were pulsed with SHIV particles (30 ng p27 or p24 per 10^6 cells) for 2 h at 2°C, a circumstance that allows binding, but prevents endocytosis. Alternatively, cells were pulsed with virus for 2 h at 37°C, a circumstance that allows binding and endocytosis ([Bristow et al., 2012]). Following pulsing for 2 h, cells were pelleted, resuspended in AIM-V and allowed to adhere to Alcian blue coated microscope slides for 8 min at 4°C, washed, and fixed using 4% paraformaldehyde as previously described ([Frank et al., 2002]). The presence of AT-2 virus in test cells was detected using dodecameric human CD4-IgG1 provided by the Laboratory of Immunoregulation, NIAID, NIH. This reagent specifically recognizes conformationally intact HIV/SIV envelope gp120. CD4-IgG1 was detected using rabbit anti-human IgG conjugated with horse radish peroxidase (SigmaAldrich). CD4-IgG-labeled cells were coupled to Oregon 488 fluorochrome using the tyramide signal amplification system (Life Science Products, Boston, MA, United States). In some cases, cells stained on slides were permeabilized using 0.05% saponin during the blocking step and further stained with the nuclear staining dye, 4′,6-diamidino-2-phenylindole (DAPI), mounted, and examined by epifluorescence microscopy using a Zeiss Axioplan to detect positive and negative reactions. Representative samples of positive and negative reactions were subsequently captured by confocal microscopy using a Perkin Elmer Operetta High Content Imaging System. Cells were analyzed by confocal microscopy using 2 μm scanning from the attached surface toward the unattached surface.

Test [1] in a line: Diet-induced obesity (DIO) mouse model, lipoprotein levels. Particulars: 60% fat diet, daily oral gavage. In kind it is in vivo, C57BL/6J mice. As for the experimental part:
Animal Studies. Animal studies were performed by Jackson Laboratory (Bar Harbor, ME), an OLAW-Assured and AAALAC accredited institution. All research was reviewed and approved by the Institutional Animal Care and Use Committee (IACUC) prior to commencing. The study used 16–17 weeks old male DIO C57BL/6J mice that had been maintained on a 10% (control) or 60% high-fat diet. […] Treatment was delivered by daily oral gavage at the same time of day for 12 weeks. Blood was collected by retro-orbital bleed every 3 weeks for measurement of total cholesterol, LDL, HDL, triglycerides, […] free fatty acids and glucose using the Beckman Coulter AU680 Chemistry System.
Food consumption was monitored twice weekly, and body weight was monitored weekly. As mice gained weight on the 60% high-fat diet during the study, dosing was adjusted accordingly. Mice were monitored for adverse effects (e.g., labored breathing, aberrant weight change). Three mice were lost during the study. […] The mice lost in the ezetimibe group were due to a severe bite wound and an unknown causes. The mouse lost in the Alphataxin group was due to an abnormal amount of gas in the stomach attributed to a gavaging error.

The test system of another test is E. coli DH5-Alpha. Briefly: Kirby-Bauer Disk Test of antibiotic activity. The class given is cell-based. Particulars: for diameter of zone of inhibition: 16 h at 37°C; for inhibitory dose: disk test. On the procedure:
Antibiotic activity. […] D-Ampicillin-sensitive E. coli DH5-Alpha was cultured overnight in LB broth, and the cell concentration was calibrated using McFarland Turbidity Standard […] for <300 × 10^6 CFU. At this concentration of cells, bacteria were spread on Mueller-Hinton agar plates. […] After incubation for 16 h at 37°C, plates were examined for zones of inhibition.

The target in test [2] is T1, cell surface human leukocyte elastase (HLE-CS) on U937 Clone 10 cells (Homo sapiens, UniProt P08246).
T1 construct: endogenous in cells; host or cells: human U937 Clone 10 cells
T1 sequence (P08246 30-267): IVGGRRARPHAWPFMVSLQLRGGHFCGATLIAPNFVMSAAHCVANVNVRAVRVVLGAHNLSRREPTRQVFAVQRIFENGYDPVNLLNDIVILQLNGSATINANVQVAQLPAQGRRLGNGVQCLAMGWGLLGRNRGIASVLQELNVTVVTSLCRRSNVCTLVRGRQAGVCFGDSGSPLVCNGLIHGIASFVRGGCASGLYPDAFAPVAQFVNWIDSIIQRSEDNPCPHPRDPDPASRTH
Briefly: Cellular adherence to glass (HLE-CS interaction). The class given is cell-based. The following applies: 2,000 U937 cells per well; for HLE-CS Adherent cells: at optimal concentration; for HLE-CS Optimal concentration: optimal adherence concentration. An excerpt:
Cellular adherence. […] […] Unattached cells were removed by washing using AIM-V, and attached cells were fixed by application of 4% paraformaldehyde. Attached cells were counted by light microscopy.

Test [3] addresses T2, Human leukocyte elastase (HLE-G) (Homo sapiens, UniProt P08246).
T2 construct: purchased Athens Research & Technology 16-14-051200
T2 sequence (P08246 30-267): T1 sequence (P08246 30-267)
Briefly: Inhibition of HLE-G enzymatic activity. The class given is biochemical. The following applies: for IC50: compound vs. HLE-G (75 µM), 10 min at 37°C, 5 min with substrate; for HLE-G Molar excess: molar excess of compound to HLE-G at IC50. As for the experimental part: Inhibition of HLE-G enzymatic activity. Two-fold serial dilutions of HLE-G in 100 µl Tris-buffered saline (pH 7.8) were added to rows of wells of a microtiter plate as previously described ([Bristow et al., 1991]). […] The microtiter plate was incubated for 10 min at 37°C. The HLE-G substrate (Succinyl-L-Ala-L-Ala-L-Ala-p-nitroanilide, Sigma) was added to all wells, and absorbance at 405 nm was detected kinetically at 23°C using an MRX plate reader.

Test [4] is classed as in vivo, human. Particulars: HIV-1-infected, 8 weekly infusions 120 mg/kg. On the procedure:
Clinical trial NCT01731691: This clinical trial was a double-blind, randomized study as previously described ([Bristow et al., 2019]). Written informed consent was received from 12 individuals, 8 HIV-1-infected individuals and 4 uninfected controls. Blood was collected weekly at the same time of day at baseline and for 8 subsequent weeks from uninfected, untreated controls and from HIV-1-infected individuals who were treated weekly with Prolastin-C (n = 3) or with placebo (n = 5). […] Inclusion criteria HIV-1 uninfected, untreated controls were the same as for HIV-1 infected subjects excluding HIV-related criteria. Grifols Biotherapeutics contributed a sufficient quantity of Prolastin-C (lot# 26NLK52) for administration of 8 weekly infusions at a dose of 120 mg/kg. The study protocol was approved by Copernicus Group Independent Institutional Review Board, Durham, NC. Drug delivery and blood collection were performed at ACRIA, New York, NY.
Human apolipoproteins measurement. Total cholesterol, high density lipoprotein (HDL), low density lipoprotein (LDL), triglycerides, apolipoprotein E (apoE), and apolipoprotein A1 (apoA1) measurements were performed by ICON Central Laboratory, Farmingdale, NY. Cholesterol, HDL, and triglycerides were measured using the Chol2, HDLC3, TRIGL methods on the Roche/Hitachi cobas c analyzer. LDL was calculated using the formula total cholesterol – HDL – (triglycerides/5). ApoE was quantitated using the Kamiya Biomedical Co. K-assay immunoturbidimetric method. ApoA1 was quantitated using the Siemens N antisera method by immunonephelometry on the BN II and BN ProSpec System. Total apoB and apoB48 measurements were contracted by ICON Central Laboratory to Nexelis (formerly Pacific Biomarkers). Total apoB was measured in serum by immunoturbidimetry using the Roche Modular P instrument and Goat polyclonal antibody specific for human apoB. ApoB48 wase measured by sandwich ELISA using a capture monoclonal antibody and detection using a biotin-conjugated polyclonal antibody followed by HRP-conjugated Streptavidin and addition of a chromogenic substrate using a SoftMax Pro ELISA plate reader. ApoB100 was calculated as total apoB minus apoB48. Cholesterol, triglycerides, HDL, LDL, apoE and apoA1 were measured by ICON Central Laboratory, Farmingdale, NY.

Broadly, the MIC is the lowest concentration found to suppress growth. The term IC50 denotes the point on the concentration scale where inhibition reaches its midpoint. A low value points to higher potency.

Take `CC1(C)S[C@@H]2[C@H](NC(=O)[C@@H](N)c3ccccc3)C(=O)N2[C@H]1C(=O)O` [Alphataxin]: the “cellular locomotion and endocytosis” value in the test with U937 Clone 10 cells is “mimics α1PI activity by binding to HLE-CS and inducing cellular locomotion and endocytosis”. Also, the SHIV localization result in the test with U937 Clone 10 cells (SHIV 2 h at 2°C) was “SHIV detected only on the exterior plasma membrane of polarized cells, never internalized into the cells”; in the test on U937 Clone 10 cells (SHIV 2 h at 37°C) it was “SHIV was detected internal to the cells”. In addition, the LDL levels result in test [1] (after 3 weeks, vs vehicle control, ezetimibe 10 mg/kg, Alphataxin 5 mg/kg) was “significantly decreased”. For the same compound, the “LDL lowering compared with ezetimibe” value in test [1] (p = 0.90) is given as “equivalent to ezetimibe”. Moreover, the triglyceride levels result in test [1] (vs vehicle control, weeks 3, 6, 8) is listed as “significantly lowered”. Also, in the test with E. coli DH5-Alpha, the “antibiotic effectiveness against E. coli” value is “not an effective antibiotic against E. coli”. Further, the “diameter of zone of inhibition” value with E. coli DH5-Alpha (0.05 mM) is 1.5 cm; with E. coli DH5-Alpha (0.5 mM), 2.8 cm; in the test with E. coli DH5-Alpha (5 mM (Figure 2 legend)) it was 1.5 cm; in the test on E. coli DH5-Alpha (50 mM (Figure 2 legend)), 2.8 cm. Also, the inhibitory dose in the test with E. coli DH5-Alpha was ≥ 0.05 mM and ≥ 17.5 μg/ml. The MIC in the test with E. coli DH5-Alpha (extrapolated from 10-fold greater minimum inhibitory dose than D-ampicillin) is no less than 80 µg/mL.
As to `CC1(C)S[C@@H]2[C@H](NC(=O)[C@H](N)c3ccc(O)cc3)C(=O)N2[C@H]1C(=O)O` [Amoxicillin], in test [2], the “HLE-CS Adherent cells” value came out at 54 ± 20 and the “HLE-CS Optimal concentration” value was 1 nM.
Take `C[C@H]1[C@H](NC(=O)/C(=N\OC(C)(C)C(=O)O)c2csc(N)n2)C(=O)N1S(=O)(=O)O` [Aztreonam]: in test [3], half-maximal inhibition (IC50) was put at 234 µM and the “HLE-G Molar excess” value worked out at 3.1. In test [2], the “HLE-CS Adherent cells” value was determined as 33 ± 4 and the “HLE-CS Optimal concentration” value is 1 nM.
In the case of `CO/N=C(\C(=O)N[C@@H]1C(=O)N2C(C(=O)O)=C(COC(N)=O)CS[C@H]12)c1ccco1` [Cefuroxine, Cefuroxime], in test [3], the midpoint of inhibition, the IC50, lay at 167 µM and the “HLE-G Molar excess” value came out at 2.2. Also, in test [2], the “HLE-CS Adherent cells” value was determined as 34 ± 8 and the “HLE-CS Optimal concentration” value came out at 1 nM.
As to `CC1=C(C(=O)O)N2C(=O)[C@@H](NC(=O)[C@H](N)c3ccccc3)[C@H]2SC1` [Cephalexin], the “HLE-CS Adherent cells” value in test [2] is given as 27 ± 10.
With `CC1(C)S[C@@H]2[C@H](NC(=O)[C@H](N)c3ccccc3)C(=O)N2[C@H]1C(=O)O` [D-Ampicillin], the “diameter of zone of inhibition” value amounted to 1.4 cm in the test on E. coli DH5-Alpha (0.005 mM), 3.8 cm in the test on E. coli DH5-Alpha (0.5 mM), 3.0 cm with E. coli DH5-Alpha (5 mM (Figure 2 legend)) and 3.8 cm with E. coli DH5-Alpha (50 mM (Figure 2 legend)). Besides, the inhibitory dose with E. coli DH5-Alpha was ≥ 0.005 mM and ≥ 1.75 μg/ml.
For the compound `Cc1onc(-c2c(Cl)cccc2Cl)c1C(=O)N[C@@H]1C(=O)N2[C@@H]1SC(C)(C)[C@@H]2C(=O)O` [Dicloxacillin], in test [3], the IC50 was 232 µM and the “HLE-G Molar excess” value was 3.1. In test [2], the “HLE-CS Adherent cells” value came out at 26 ± 9 and the “HLE-CS Optimal concentration” value is reported as 1 nM.
As to `C[C@@H](O)[C@H]1C(=O)N2C(C(=O)O)=C(S[C@@H]3CN[C@H](CNS(N)(=O)=O)C3)[C@H](C)[C@H]12` [Doripenem], in test [3], 178 µM corresponded to half-maximal inhibition (IC50) and the “HLE-G Molar excess” value was 2.4. Also, in test [2], the “HLE-CS Adherent cells” value worked out at 52 ± 6 and the “HLE-CS Optimal concentration” value was determined as 100 nM.
As to `C[C@@H](O)[C@H]1C(=O)N2C(C(=O)O)=C([C@H]3CCCO3)S[C@H]12` [Faropenem], in test [3], the midpoint of inhibition, the IC50, lay at 203 µM and the “HLE-G Molar excess” value was 2.7. In test [2], the “HLE-CS Adherent cells” value turned out to be 23 ± 4 and the “HLE-CS Optimal concentration” value is listed as 10 nM.
Regarding `CC1(C)S[C@@H]2[C@H](NC(=O)COc3ccccc3)C(=O)N2[C@H]1C(=O)O` [Pen V, Penicillin V], in test [3], 262 µM corresponded to half-maximal inhibition (IC50) and the “HLE-G Molar excess” value is on record as 3.5. Besides, in test [2], the “HLE-CS Adherent cells” value is on record as 30 ± 4 and the “HLE-CS Optimal concentration” value worked out at 10 nM.
For “Prolastin-C: sterile plasma-purified α1PI preparation from Grifols, lot# 26NLK52, infused weekly at 120 mg/kg”, in test [4], the HDL levels result was “decreased from above normal to below normal levels”, the apoA1 levels entry is listed as “decreased from above normal to below normal levels”, the apoB48 levels result is reported as “decreased from above normal to below normal levels” and the apoB100 levels result is given as “did not significantly decrease”. Also, in test [4], the apoE levels entry is listed as “decreased from above normal to normal levels”, the total cholesterol levels entry is listed as “decreased from above normal to normal levels” and the triglycerides levels result is reported as “decreased from above normal to normal levels”. In addition, the LDL levels entry in test [4] (vs placebo arm) was “significantly lower than in the placebo arm”.
